Experimental findings from PMC5618341, “Controlled inhibition of methyltransferases using photoswitchable peptidomimetics: towards an epigenetic regulation of leukemia” (Chemical Science, 2017) are described below.

The target in series [1] is T1, WDR5Δ23 (Homo sapiens, UniProt P61964).
T1 construct: His6-SUMO (N, cleaved yes); made in house; host or cells: E. coli DH5α (so in the source)
As to the kind of experiment: Fluorescence polarization (FP)-based competitive binding assay.

The nature of series [2]: Proliferation / cell viability assay (CellTiter-Glo). It is filed as cell-based, mouse. The method, then:
We initially studied the cellular uptake and cell viability of our compounds in murine MLL-AF9-transduced mouse bone marrow cells (Fig. 5). In line with our expectations, peptidomimetics 16 and 17 that contained peptide 7 within their sequence are the ones that inhibited the cell proliferation of leukemia. […] Thus, while in the case of the trans isomer of peptidomimetic 16 we already determined less than 50% of viable cells at 2.5 μM concentration, with the WIN-containing conjugates 20 and 21 we measured 87% and 96% of viable cells at 50 μM concentration, respectively.
We then examined the potential of 16 and 17 to control externally the cellular response in proliferation assays. Thus, both isomers of both peptidomimetics were incubated at different concentrations for four days. After two days of incubation, the cells containing the cis isomers were irradiated at 430 nm for 90 seconds in a single isomerization cycle with a custom-made 6-well plate LED array.
MLL-AF9-transduced mouse bone marrow was cultured in IMDM medium + 15% FBS and supplemented with 10 ng/mL interleukin-3 (IL-3) at each passage, every other day.
DMSO) isomers, of peptides 7, 16, 17, as well as the peptides 18 and 19 were diluted from stock to culture media containing a 0.1% DMSO final concentration. For viability assays, […]
72 h and DMSO as control . For the cis-trans group, after 48 h treatment with cis peptides, the plate was irradiated at […] for 90 sec and continued to culture for 2 days in the dark.
Viability was determined using the CellTiter-Glo Kit (Promega) according to the a a ’ d . was monitored on a Molecular Devices plate reader.

Setting [3] is: non-irradiated peptide (trans isomer), 72 nM WDR5Δ23, 20 nM tracer 22, read-out: IC50, non-irradiated (trans).
Where [4] appears, read: non-irradiated peptide (trans isomer), 72 nM WDR5Δ23, 20 nM tracer 22, read-out: Ki, non-irradiation (trans).

Read-outs that look alike come from different tables or passages of the source. Starred links: 1 amine or outer side, 2 acyl side, 3 side chain; linkers in the order of their positions; H or OH if unused. Non-standard residues stand in square brackets, D forms with d. Residues, ends and D or L forms follow the SMILES beside them. AMPB = O=C(c1ccc(N=Nc2ccc(CN[*:1])cc2)cc1)[*:2]; Ahx = NCCCCCC(=O)O; βAla = NCCC(=O)O

As usually defined, the IC50 is the concentration needed to halve the response being measured. One may read the Ki as the equilibrium dissociation constant of an inhibitor or competing ligand from its target. With `CC(C)C[C@H](NC(=O)[C@H](Cc1c[nH]cn1)NC(=O)[C@@H](NC(=O)[C@H](CCC(=O)O)NC(=O)[C@H](C)NC(=O)[C@H](CCCNC(=N)N)NC(=O)[C@H](C)NC(=O)[C@@H](N)CO)C(C)C)C(=O)NCc1ccc(N=Nc2ccc(C(=O)N[C@@H](CCCCN)C(=O)N[C@@H](CO)C(N)=O)cc2)cc1` [peptide 11, H2N-SARAEVHLXKS-CONH2] (H-SARAEVHL[AMPB]KS-NH2), the IC50 in series [1] (setting [3]) was 2140 ± 280 nM. Further, in series [1] (setting [4]), the inhibition constant (Ki) came out at 32.8 ± 4.5 nM.

For `CC(C)C[C@H](NC(=O)[C@H](Cc1c[nH]cn1)NC(=O)[C@@H](NC(=O)[C@H](CCC(=O)O)NC(=O)[C@H](C)NC(=O)[C@H](CCCNC(=N)N)NC(=O)[C@H](C)NC(=O)[C@@H](N)CO)C(C)C)C(=O)N[C@@H](CCCNC(=N)N)C(=O)NCc1ccc(N=Nc2ccc(C(=O)N[C@@H](CO)C(N)=O)cc2)cc1` [peptide 12, H2N-SARAEVHLRXS-CONH2] (H-SARAEVHLR[AMPB]S-NH2), the IC50 in series [1] (setting [3]) is 1320 ± 110 nM. The Ki in series [1] (setting [4]) came to 19.8 ± 1.7 nM.

For `CC(C)C[C@H](NC(=O)[C@H](Cc1c[nH]cn1)NC(=O)c1ccc(N=Nc2ccc(CNC(=O)[C@H](C)NC(=O)[C@H](CCCNC(=N)N)NC(=O)[C@H](C)NC(=O)[C@@H](N)CO)cc2)cc1)C(=O)N[C@@H](CCCNC(=N)N)C(=O)N[C@@H](CCCCN)C(=O)N[C@@H](CO)C(N)=O` [peptide 13, H2N-SARAXHLRKS-CONH2] (H-SARA[AMPB]HLRKS-NH2), the half-maximal inhibitory concentration (IC50) in series [1] (setting [3]) was found to be 293 ± 50 nM. Moreover, the inhibitory constant (Ki) in series [1] (setting [4]) amounted to 3.63 ± 0.8 nM.

`CC(=O)N[C@@H](C)C(=O)N[C@@H](CCCNC(=N)N)C(=O)N[C@@H](C)C(=O)NCc1ccc(N=Nc2ccc(C(=O)N[C@H](C(=O)N[C@@H](Cc3c[nH]cn3)C(=O)N[C@@H](CC(C)C)C(=O)N[C@@H](CCCNC(=N)N)C(=O)N[C@@H](CCCCN)C(=O)N[C@@H](CO)C(N)=O)C(C)C)cc2)cc1` [peptide 14, Ac-ARAXVHLRKS-CONH2] (Ac-ARA[AMPB]VHLRKS-NH2): the IC50 amounted to 102 ± 15 nM in series [1] (IC50 cis (with 5 nM tracer), cis isomer (366 nm), 20 nM WDR5Δ23, 5 nM tracer 22) and 45 ± 11 nM in series [1] (IC50 trans (with 5 nM tracer), trans isomer, 20 nM WDR5Δ23, 5 nM tracer 22). In addition, the inhibition constant Ki in series [1] (Ki cis (with 5 nM tracer), cis isomer (366 nm), 20 nM WDR5Δ23, 5 nM tracer 22) came to 4.5 ± 0.82 nM; in series [1] (Ki trans (with 5 nM tracer), trans isomer, 20 nM WDR5Δ23, 5 nM tracer 22), 1.5 ± 0.63 nM; in series [1] (setting [4]) it was 1.45 ± 0.52 nM.

For `CC(=O)N[C@@H](C)C(=O)N[C@@H](CCCNC(=N)N)C(=O)N[C@H](C(=O)NCc1ccc(N=Nc2ccc(C(=O)N[C@H](C(=O)N[C@@H](Cc3ccc(O)cc3)C(N)=O)C(C)C)cc2)cc1)[C@@H](C)O` [peptide 15, Ac-ARTXVY-CONH2] (Ac-ART[AMPB]VY-NH2), the half-maximal inhibitory concentration (IC50) in series [1] (setting [3]) came out at 109 ± 10 nM. The Ki in series [1] (setting [4]) came out at 0.767 ± 0.15 nM.

A word on the viability: it is the share of living cells, or the viability signal relative to a control. The low end stands for a greater loss of cells, the high end for better survival. Regarding `CC(C)C[C@H](NC(=O)[C@H](Cc1c[nH]cn1)NC(=O)[C@@H](NC(=O)[C@H](CCC(=O)O)NC(=O)[C@H](C)NC(=O)[C@H](CCCNC(=N)N)NC(=O)[C@H](C)NC(=O)[C@@H](N)CO)C(C)C)C(=O)N[C@@H](CCCNC(=N)N)C(=O)N[C@@H](CCCCN)C(=O)N[C@@H](CO)C(=O)N[C@@H](CCCNC(=N)N)C(=O)N[C@@H](CCCNC(=N)N)C(=O)N[C@@H](CCCNC(=N)N)C(=O)N[C@@H](CCCNC(=N)N)C(=O)N[C@@H](CCCNC(=N)N)C(=O)N[C@@H](CCCNC(=N)N)C(=O)N[C@@H](CCCNC(=N)N)C(=O)N[C@@H](CCCNC(=N)N)C(N)=O` [peptide 20] (H-SARAEVHLRKSRRRRRRRR-NH2), the IC50 in series [1] (setting [3]) was determined as 368 ± 20 nM. The Ki in series [1] (setting [4]) amounted to 4.83 ± 0.31 nM. Besides, the viability at 50 µM in series [2] was determined as 87%.

`CC(C)C[C@H](NC(=O)[C@H](Cc1c[nH]cn1)NC(=O)[C@@H](NC(=O)[C@H](CCC(=O)O)NC(=O)[C@H](C)NC(=O)[C@H](CCCNC(=N)N)NC(=O)[C@H](C)NC(=O)[C@@H](N)CO)C(C)C)C(=O)N[C@@H](CCCNC(=N)N)C(=O)N[C@@H](CCCCN)C(=O)N[C@@H](CO)C(=O)N[C@@H](CCCNC(=N)N)C(=O)NCCCCCC(=O)N[C@@H](CCCNC(=N)N)C(=O)N[C@@H](CCCNC(=N)N)C(=O)NCCCCCC(=O)N[C@@H](CCCNC(=N)N)C(=O)N[C@@H](CCCNC(=N)N)C(=O)NCCCCCC(=O)N[C@@H](CCCNC(=N)N)C(=O)N[C@@H](CCCNC(=N)N)C(=O)NCCCCCC(=O)N[C@@H](CCCNC(=N)N)C(=O)NCCCCCC(=O)NCCC(N)=O` [peptide 21] (H-SARAEVHLRKSR[Ahx]RR[Ahx]RR[Ahx]RR[Ahx]R[Ahx][βAla]-NH2): the IC50 in series [1] (setting [3]) amounted to 612 ± 20 nM. For the same compound, the Ki in series [1] (setting [4]) is 8.67 ± 0.32 nM. This compound also yielded a viability at 50 µM in series [2] of 96%.

“H2N-SXARAEVHLRKS-CONH2 [peptide 4, X = AMPB]”: the “binding constant to WDR5 (in words)” value in series [1] (both isomers) is recorded as “not possible to obtain measurable binding constants”.
